Source: article doi:10.1101/2024.02.27.582382, “Distinct roles of the major binding residues in the cation-binding pocket of MelB” (bioRxiv, 2024)
Read-outs that look alike come from different tables or passages of the source.

How the values were obtained:
[1] = target: T1, MelBSt (melibiose permease of Salmonella enterica serovar Typhimurium) (Salmonella enterica, UniProt P30878); assay: ITC; format: binding; conditions: pH 8.5, 25 °C, Na+-free, 20 mM Tris-HCl, 100 mM choline chloride, 0.035% UDM
T1 construct: gene melB; full length, C-terminal His10 tag (plasmid pK95 delta-AH/MelBSt/CHis10), expressed in E. coli DW2; modelled residues 2-454 or 2-456
T1 sequence (P30878 whole entry, the tested form may be a part): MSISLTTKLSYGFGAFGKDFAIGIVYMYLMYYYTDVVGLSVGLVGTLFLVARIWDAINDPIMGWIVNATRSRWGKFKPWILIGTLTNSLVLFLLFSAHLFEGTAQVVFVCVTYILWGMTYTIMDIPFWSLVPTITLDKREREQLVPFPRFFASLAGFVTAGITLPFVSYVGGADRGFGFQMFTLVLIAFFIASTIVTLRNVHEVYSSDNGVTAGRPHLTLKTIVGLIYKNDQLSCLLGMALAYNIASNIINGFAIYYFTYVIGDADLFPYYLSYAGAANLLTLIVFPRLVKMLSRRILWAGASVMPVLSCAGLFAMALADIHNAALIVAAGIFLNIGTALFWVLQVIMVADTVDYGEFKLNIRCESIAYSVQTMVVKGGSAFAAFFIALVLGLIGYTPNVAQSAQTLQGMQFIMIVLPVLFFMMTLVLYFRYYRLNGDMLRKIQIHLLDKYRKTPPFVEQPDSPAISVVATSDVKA

[2] = target: T2, MelBSt (melibiose permease of Salmonella enterica serovar Typhimurium) (Salmonella enterica, UniProt P30878, D55C); assay: biochemical
T2 construct: gene melB
T2 sequence (P30878 whole entry D55C): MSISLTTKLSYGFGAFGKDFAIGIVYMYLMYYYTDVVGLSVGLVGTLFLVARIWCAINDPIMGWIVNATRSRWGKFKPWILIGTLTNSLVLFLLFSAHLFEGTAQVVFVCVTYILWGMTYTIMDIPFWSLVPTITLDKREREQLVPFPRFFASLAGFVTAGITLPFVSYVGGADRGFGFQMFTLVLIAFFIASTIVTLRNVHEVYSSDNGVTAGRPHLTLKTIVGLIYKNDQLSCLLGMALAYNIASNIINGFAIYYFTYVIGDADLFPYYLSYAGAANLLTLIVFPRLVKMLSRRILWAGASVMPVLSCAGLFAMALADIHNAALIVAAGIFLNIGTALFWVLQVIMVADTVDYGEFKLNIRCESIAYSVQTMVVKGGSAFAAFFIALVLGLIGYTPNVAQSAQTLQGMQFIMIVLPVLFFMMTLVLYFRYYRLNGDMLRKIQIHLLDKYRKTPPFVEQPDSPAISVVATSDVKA
From the text: ITC on MelBSt (melibiose permease of Salmonella enterica serovar Typhimurium)

Asp59 = Asp59 (UniProt position 59, WDAINDPIMGW); assay: ITC; conditions: cited from earlier work

## OC[C@H]1O[C@H](OC[C@H]2OC(O)[C@H](O)[C@@H](O)[C@@H]2O)[C@H](O)[C@@H](O)[C@H]1O (some centres unmarked) [melibiose]
[1]
  Kd: 8.5 ± 0.21 mM
[2]; read-out: Melibiose, pH 7.5, 25 °C, no Na+ or Li+, UDM
  Kd: 5.82 ± 0.46 mM

## O=[N+]([O-])c1ccc(O[C@H]2O[C@H](CO)[C@H](O)[C@H](O)[C@H]2O)cc1 [α-NPG, 4-nitrophenyl-α-D-galactopyranoside]
[2]
  Kd: 0.0151 ± 0.00186 mM

## Melibiose permease MelB (MelBSt) (Salmonella enterica serovar Typhimurium)
Asp59; absence of melibiose (sugar-free)
  pKa: 6.25
Asp59; presence of melibiose
  pKa: approximately 6.5
